Experimental data published in ChEMBL document CHEMBL1201862, “PubChem BioAssay data set” (2004).
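Cultured in 96-well plates, cells were exposed to test compound for 48 hours across five concentrations. The concentration for 50% growth inhibition is given as GI50.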 Activity calls are given as the source filed them. No stated cut-off is given here; in the data, active = GI50 up to about 1.1 µM and inactive = higher.

What was measured:
Assay in all cases: NCI tumour cell line growth inhibition, 48 h
[1] = test system: SN12C
[2] = test system: SK-MEL-5
[3] = test system: MDA-N
[4] = test system: SW-620
[5] = test system: HOP-92
[6] = test system: DU-145
[7] = test system: RPMI-8226
[8] = test system: MDA-MB-231
[9] = test system: BT-549
[10] = test system: SK-MEL-2
[11] = test system: NCI/ADR-RES
[12] = test system: UO-31
[13] = test system: HOP-62
[14] = test system: UACC-62
[15] = test system: A549
[16] = test system: HT-29
[17] = test system: MCF7
[18] = test system: HCT-116
[19] = test system: EKVX
[20] = test system: SF-268
[21] = test system: NCI-H522
[22] = test system: PC-3
[23] = test system: SNB-19
[24] = test system: RXF 393
[25] = test system: NCI-H23
[26] = test system: Hs-578T
[27] = test system: ACHN
[28] = test system: 786-0
[29] = test system: CAKI-1
[30] = test system: Malme-3M
[31] = test system: HCC 2998
[32] = test system: M14
[33] = test system: K562
[34] = test system: SF-295
[35] = test system: CCRF-CEM
[36] = test system: HCT-15
[37] = test system: SK-MEL-28
[38] = test system: OVCAR-8
[39] = test system: MOLT-4
[40] = test system: KM12
[41] = test system: SF-539
[42] = test system: T47D
[43] = test system: UACC-257
[44] = test system: SK-OV-3
[45] = test system: OVCAR-5
[46] = test system: NCI-H460
[47] = test system: A498
[48] = test system: TK-10
[49] = test system: OVCAR-4
[50] = test system: IGROV-1
[51] = test system: HL-60
[52] = test system: MDA-MB-435
[53] = test system: U-251
[54] = test system: NCI-H226
[55] = test system: OVCAR-3
[56] = test system: COLO 205
[57] = test system: SR
[58] = test system: LOX IMVI
[59] = test system: SNB-75

SMILES: Cc1ccc(C(=O)Cc2nc3ncccc3[nH]c2=O)cc1
- GI50 [1]: 55.5 µM (inactive)
- GI50 [2]: 40.8 µM (inactive)
- GI50 [3]: 74.8 µM (inactive)
- GI50 [4]: 80 µM (inactive)
- GI50 [5]: 14.6 µM (inactive)
- GI50 [6]: 58.2 µM (inactive)
- GI50 [7]: 59 µM (inactive)
- GI50 [8]: 24.9 µM (inactive)
- GI50 [9]: 43.7 µM (inactive)
- GI50 [10]: > 100 µM (inactive)
- GI50 [11]: 59 µM (inactive)
- GI50 [12]: 32.1 µM (inactive)
- GI50 [13]: 26 µM (inactive)
- GI50 [14]: 49.8 µM (inactive)
- GI50 [15]: 12.8 µM (inactive)
- GI50 [16]: 59.6 µM (inactive)
- GI50 [17]: 49.9 µM (inactive)
- GI50 [18]: 30.5 µM (inactive)
- GI50 [19]: 33.2 µM (inactive)
- GI50 [20]: 41.6 µM (inactive)
- GI50 [21]: 48.3 µM (inactive)
- GI50 [22]: 43.9 µM (inactive)
- GI50 [23]: 6.15 µM (inactive)
- GI50 [24]: 44.2 µM (inactive)
- GI50 [25]: 9.29 µM (inactive)
- GI50 [26]: 13.3 µM (inactive)
- GI50 [27]: 25.7 µM (inactive)
- GI50 [28]: 22.5 µM (inactive)
- GI50 [29]: 65.5 µM (inactive)
- GI50 [30]: 23.2 µM (inactive)
- GI50 [31]: 51.5 µM (inactive)
- GI50 [32]: 82.8 µM (inactive)
- GI50 [33]: > 100 µM (inactive)
- GI50 [34]: 45.4 µM (inactive)
- GI50 [35]: > 100 µM (inactive)
- GI50 [36]: 41.2 µM
- GI50 [37]: 32.8 µM (inactive)
- GI50 [38]: 23.6 µM (inactive)
- GI50 [39]: 70.3 µM (inactive)
- GI50 [40]: 43.4 µM (inactive)
- GI50 [41]: 30.5 µM (inactive)
- GI50 [42]: 45.5 µM (inactive)
- GI50 [43]: 40.6 µM (inactive)
- GI50 [44]: 23 µM (inactive)
- GI50 [45]: 81.5 µM (inactive)
- GI50 [46]: 45.4 µM (inactive)
- GI50 [47]: > 100 µM (inactive)
- GI50 [48]: 29.9 µM (inactive)
- GI50 [49]: 25.7 µM (inactive)
- GI50 [50]: 37.2 µM (inactive)
- GI50 [51]: > 100 µM (inactive)
- GI50 [52]: 18.7 µM (inactive)
- GI50 [53]: 22.5 µM (inactive)
- GI50 [54]: 24.9 µM (inactive)
- GI50 [55]: 40.1 µM (inactive)
- GI50 [56]: 58.9 µM (inactive)
- GI50 [57]: 48.5 µM (inactive)

SMILES: COc1nc2ccc(Cl)c(C(O)c3ccccc3)c2nc1OC (centres undefined)
- GI50 [1]: 19.7 µM (inactive)
- GI50 [2]: 15.6 µM (inactive)
- GI50 [3]: 11.5 µM (inactive)
- GI50 [4]: 26.7 µM (inactive)
- GI50 [58]: 17.5 µM (inactive)
- GI50 [5]: 12.9 µM (inactive)
- GI50 [6]: 32.3 µM (inactive)
- GI50 [7]: 14.1 µM (inactive)
- GI50 [8]: 15.4 µM (inactive)
- GI50 [9]: 30.9 µM (inactive)
- GI50 [10]: 18.5 µM (inactive)
- GI50 [11]: 20.3 µM (inactive)
- GI50 [12]: 22.1 µM (inactive)
- GI50 [13]: 16.5 µM (inactive)
- GI50 [14]: 17.1 µM (inactive)
- GI50 [15]: 23.8 µM (inactive)
- GI50 [16]: 29.9 µM (inactive)
- GI50 [17]: 29.7 µM (inactive)
- GI50 [18]: 16.2 µM (inactive)
- GI50 [19]: 18.2 µM (inactive)
- GI50 [20]: 23.4 µM (inactive)
- GI50 [21]: 15.7 µM (inactive)
- GI50 [22]: 26.5 µM (inactive)
- GI50 [23]: 24.9 µM (inactive)
- GI50 [24]: 14.3 µM (inactive)
- GI50 [25]: 17.2 µM (inactive)
- GI50 [26]: 14.9 µM (inactive)
- GI50 [27]: 30.2 µM (inactive)
- GI50 [29]: 12.1 µM (inactive)
- GI50 [30]: 32.9 µM (inactive)
- GI50 [32]: 17.2 µM (inactive)
- GI50 [33]: 18.6 µM (inactive)
- GI50 [34]: 10.5 µM (inactive)
- GI50 [35]: 12.6 µM (inactive)
- GI50 [36]: 20.6 µM
- GI50 [37]: 35.5 µM (inactive)
- GI50 [38]: 29 µM (inactive)
- GI50 [39]: 17.6 µM (inactive)
- GI50 [40]: 29.9 µM (inactive)
- GI50 [41]: 18.3 µM (inactive)
- GI50 [42]: 19.8 µM (inactive)
- GI50 [43]: 24.6 µM (inactive)
- GI50 [45]: 29 µM (inactive)
- GI50 [46]: 25.8 µM (inactive)
- GI50 [47]: 18.6 µM (inactive)
- GI50 [59]: 33 µM (inactive)
- GI50 [48]: 37.2 µM (inactive)
- GI50 [49]: 26.6 µM (inactive)
- GI50 [50]: 24.8 µM (inactive)
- GI50 [51]: 19.2 µM (inactive)
- GI50 [52]: 12.5 µM (inactive)
- GI50 [53]: 25.3 µM (inactive)
- GI50 [54]: 16.3 µM (inactive)
- GI50 [55]: 24.1 µM (inactive)
- GI50 [56]: 18.1 µM (inactive)
- GI50 [57]: 6.52 µM (inactive)

SMILES: O=C(O)CC1OCC=C2C[N+]3([O-])CCC45c6ccccc6NC4C1C2CC53 (centres undefined)
- GI50 [1]: > 100 µM (inactive)
- GI50 [2]: > 100 µM (inactive)
- GI50 [3]: > 100 µM (inactive)
- GI50 [4]: > 100 µM (inactive)
- GI50 [58]: > 100 µM (inactive)
- GI50 [5]: > 100 µM (inactive)
- GI50 [6]: > 100 µM (inactive)
- GI50 [7]: > 100 µM (inactive)
- GI50 [8]: > 100 µM (inactive)
- GI50 [9]: > 100 µM (inactive)
- GI50 [10]: 17.7 µM (inactive)
- GI50 [11]: > 100 µM (inactive)
- GI50 [12]: > 100 µM (inactive)
- GI50 [13]: > 100 µM (inactive)
- GI50 [14]: > 100 µM (inactive)
- GI50 [15]: > 100 µM (inactive)
- GI50 [16]: > 100 µM (inactive)
- GI50 [17]: > 100 µM (inactive)
- GI50 [18]: > 100 µM (inactive)
- GI50 [19]: > 100 µM (inactive)
- GI50 [20]: > 100 µM (inactive)
- GI50 [21]: > 100 µM (inactive)
- GI50 [22]: > 100 µM (inactive)
- GI50 [23]: > 100 µM (inactive)
- GI50 [24]: > 100 µM (inactive)
- GI50 [25]: > 100 µM (inactive)
- GI50 [26]: > 100 µM (inactive)
- GI50 [27]: > 100 µM (inactive)
- GI50 [28]: > 100 µM (inactive)
- GI50 [29]: > 100 µM (inactive)
- GI50 [30]: > 100 µM (inactive)
- GI50 [32]: > 100 µM (inactive)
- GI50 [33]: > 100 µM (inactive)
- GI50 [34]: > 100 µM (inactive)
- GI50 [36]: > 100 µM
- GI50 [37]: > 100 µM (inactive)
- GI50 [38]: > 100 µM (inactive)
- GI50 [39]: > 100 µM (inactive)
- GI50 [40]: > 100 µM (inactive)
- GI50 [41]: > 100 µM (inactive)
- GI50 [42]: > 100 µM (inactive)
- GI50 [43]: > 100 µM (inactive)
- GI50 [44]: > 100 µM (inactive)
- GI50 [45]: > 100 µM (inactive)
- GI50 [46]: > 100 µM (inactive)
- GI50 [47]: > 100 µM (inactive)
- GI50 [48]: > 100 µM (inactive)
- GI50 [49]: > 100 µM (inactive)
- GI50 [50]: > 100 µM (inactive)
- GI50 [51]: > 100 µM (inactive)
- GI50 [52]: > 100 µM (inactive)
- GI50 [53]: > 100 µM (inactive)
- GI50 [54]: > 100 µM (inactive)
- GI50 [55]: > 100 µM (inactive)
- GI50 [56]: > 100 µM (inactive)
- GI50 [57]: > 100 µM (inactive)
